Test results published in the supplement of paper PMC10307832.

Key:
Test in all cases: relative viability (nuclei count vs DMSO), 5 days (fraction); higher = more cells survive
Venetoclax + Bortezomib = compound: CC1(C)CCC(CN2CCN(c3ccc(C(=O)NS(=O)(=O)c4ccc(NCC5CCOCC5)c([N+](=O)[O-])c4)c(Oc4cnc5[nH]ccc5c4)c3)CC2)=C(c2ccc(Cl)cc2)C1 [Venetoclax] + CC(C)C[C@H](NC(=O)[C@H](Cc1ccccc1)NC(=O)c1cnccn1)B(O)O [Bortezomib] (partner 0.002 µM)
Outline: (§1)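 Lung cancer cell lines in 1536-well plates were dosed by pin tool the day after seeding, either with one drug alone or with a fixed anchor-drug dose plus five library-drug doses (not always all listed) in √10 steps. After 5 days, cells were fixed and their nuclei stained in one step (final 0.05% Triton X-100, 1% formaldehyde, 1 ug/ml Hoechst), then counted on 4× images. Relative viability is the nuclei count in treated wells divided by that in vehicle wells. Values are medians of duplicate plates.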

Venetoclax + Vorinostat = compound: CC1(C)CCC(CN2CCN(c3ccc(C(=O)NS(=O)(=O)c4ccc(NCC5CCOCC5)c([N+](=O)[O-])c4)c(Oc4cnc5[nH]ccc5c4)c3)CC2)=C(c2ccc(Cl)cc2)C1 [Venetoclax] + O=C(CCCCCCC(=O)Nc1ccccc1)NO [Vorinostat] (partner 1 µM)
Outline: as §1

Selumetinib + Phenformin = compound: Cn1cnc2c(F)c(Nc3ccc(Br)cc3Cl)c(C(=O)NOCCO)cc21 [Selumetinib] + N=C(N)NC(=N)NCCc1ccccc1 [Phenformin] (partner 250 µM)
Outline: as §1

Selumetinib + AZD7762 = compound: Cn1cnc2c(F)c(Nc3ccc(Br)cc3Cl)c(C(=O)NOCCO)cc21 [Selumetinib] + NC(=O)Nc1cc(-c2cccc(F)c2)sc1C(=O)N[C@H]1CCCNC1 [AZD7762] (partner 0.2 µM)
Outline: as §1

| Cell Line | relative viability (Venetoclax + Bortezomib; first compound 0.01 µM) | relative viability (Venetoclax + Bortezomib; first compound 0.03162 µM) | relative viability (Venetoclax + Bortezomib; first compound 0.1 µM) | relative viability (Venetoclax + Bortezomib; first compound 0.3162 µM) | relative viability (Venetoclax + Bortezomib; first compound 1 µM) | relative viability (Venetoclax + Vorinostat; first compound 0.01 µM) | relative viability (Venetoclax + Vorinostat; first compound 0.03162 µM) | relative viability (Venetoclax + Vorinostat; first compound 0.1 µM) | relative viability (Venetoclax + Vorinostat; first compound 0.3162 µM) | relative viability (Venetoclax + Vorinostat; first compound 1 µM) | relative viability (Selumetinib + Phenformin; first compound 0.02 µM) | relative viability (Selumetinib + Phenformin; first compound 0.06325 µM) | relative viability (Selumetinib + Phenformin; first compound 0.2 µM) | relative viability (Selumetinib + Phenformin; first compound 0.6325 µM) | relative viability (Selumetinib + AZD7762; first compound 0.02 µM) | relative viability (Selumetinib + AZD7762; first compound 0.06325 µM) | relative viability (Selumetinib + AZD7762; first compound 0.2 µM) | relative viability (Selumetinib + AZD7762; first compound 0.6325 µM) |
| --- | --- | --- | --- | --- | --- | --- | --- | --- | --- | --- | --- | --- | --- | --- | --- | --- | --- | --- |
| NCI-H2126 | 1.05 | 1.12 | 1.09 | 1.14 | 1.11 | 0.848 | 0.798 | 0.687 | 0.774 | 0.699 | 0.526 | 0.453 | 0.466 | 0.434 | 1.03 | 0.981 | 0.987 | 0.903 |
| EPLC-272H | – | 0.957 | 0.852 | 0.872 | 0.947 | 0.495 | 0.422 | 0.579 | 0.469 | 0.494 | 0.26 | 0.223 | 0.211 | 0.223 | 0.24 | 0.19 | 0.281 | 0.476 |
| PC-14 | 0.765 | 0.939 | 0.843 | 0.839 | 0.789 | 0.642 | 0.788 | 0.822 | 0.692 | 0.641 | 0.516 | 0.507 | 0.529 | 0.447 | 0.364 | 0.397 | 0.276 | 0.313 |
| LXF-289 | 1.03 | 0.966 | 1 | 1.01 | 0.87 | 0.885 | 0.791 | 0.746 | 0.751 | 0.734 | 0.52 | 0.501 | 0.442 | 0.434 | 0.958 | 0.887 | 0.829 | 0.85 |
| NCI-H441 | 0.651 | 0.91 | 0.532 | 0.451 | 0.476 | 0.78 | 0.762 | 1.02 | 0.868 | 0.743 | 0.886 | 0.674 | 0.667 | 0.468 | 1.07 | 0.974 | 1.01 | 0.69 |
| NCI-H596 | 1.01 | 0.857 | 0.979 | 1.14 | 1.14 | 0.649 | 0.626 | 0.587 | 0.568 | 0.714 | 0.894 | 0.695 | 0.751 | 0.564 | 1.06 | 1.14 | 1.02 | 0.768 |
| NCI-H727 | 0.938 | 1.19 | 0.833 | 0.862 | 0.888 | 1.04 | 1.4 | 1.08 | 1.12 | 1.11 | 0.455 | 0.381 | 0.375 | 0.355 | 0.455 | 0.428 | 0.322 | 0.427 |
| NCI-H838 | 0.949 | 0.957 | 0.73 | 0.801 | 0.797 | 0.699 | 0.72 | 0.709 | 0.769 | 0.719 | 0.502 | 0.481 | 0.505 | 0.474 | 0.87 | 0.844 | 0.878 | 0.824 |
| NCI-H1355 | 1.27 | 1.23 | 1.2 | 1.11 | 1.18 | 0.626 | 0.618 | 0.625 | 0.692 | 0.577 | 0.435 | 0.43 | 0.391 | 0.373 | 0.818 | 0.711 | 0.748 | 0.565 |
| HARA | 1.14 | 1.13 | 0.937 | 1.12 | 1.1 | 0.568 | 0.605 | 0.554 | 0.512 | 0.4 | 0.502 | 0.387 | 0.48 | 0.299 | 0.38 | 0.34 | 0.341 | 0.152 |
| 201T | 1.11 | 1.03 | 1.11 | 1.09 | 1.06 | 0.858 | 1.02 | 0.917 | 0.975 | 0.947 | 0.507 | 0.406 | 0.455 | 0.421 | 0.602 | 0.615 | 0.554 | 0.6 |
| NCI-H23 | 0.95 | 0.952 | 1.06 | 1.07 | 0.9 | 0.565 | 0.752 | 0.54 | 0.619 | 0.521 | 0.834 | 0.706 | 0.774 | 0.519 | 0.265 | 0.315 | 0.222 | 0.195 |
| CAL-12T | 0.976 | 1.14 | 0.954 | 0.901 | 0.877 | 0.684 | 0.782 | 0.683 | 0.865 | 0.56 | 0.469 | 0.392 | 0.393 | 0.353 | 0.64 | 0.574 | 0.566 | 0.568 |
| NCI-H647 | 1.08 | 1.2 | – | 0.944 | 1.02 | 0.451 | 0.629 | 0.529 | 0.528 | 0.465 | 0.592 | 0.488 | 0.512 | 0.414 | 0.466 | 0.441 | 0.366 | 0.271 |
| NCI-H1915 | 0.972 | 0.965 | 0.908 | 0.971 | 0.919 | 0.49 | 0.533 | 0.478 | 0.54 | 0.512 | 0.423 | 0.371 | 0.271 | 0.284 | 0.81 | 0.663 | 0.646 | 0.453 |
| NCI-H2087 | 0.808 | 0.766 | 1 | 0.83 | 0.753 | 0.606 | 0.824 | 0.881 | 0.799 | 0.953 | 0.367 | 0.279 | 0.294 | 0.214 | 1.1 | 0.993 | 1.16 | 0.525 |
| NCI-H2085 | 0.976 | 1.14 | 1.07 | 0.923 | 0.946 | 0.713 | 0.807 | 0.795 | 0.817 | 0.765 | 0.637 | 0.623 | 0.602 | 0.481 | 0.914 | 0.906 | 0.864 | 0.722 |
